Assay results as given in patent US9012443B2 (Amgen Inc., priority 2011, dated 2015).
Counter-ions that a name gives are not always drawn.

Biological target: Nav 1.7 (Homo sapiens (Human), UniProt Q15858)
Experiment: Nav 1.7 in vitro PX assay (PatchXpress whole cell voltage clamp)
Type: cell-based
Conditions: 293 cells, human Nav1.7, partially inactivated state; read-out: Nav1.7 PX IC50 IP
Experimental: Nav 1.7 In Vitro PX Assay
293 cells stably transfected with human Nav1.7 were recorded in whole cell voltage clamp mode with the PatchXpress automated electrophysiology system (Molecular Devices, LLC, Sunnyvale, Calif.). Compound effects were measured on a partially inactivated state of the sodium channel. Cells were clamped to a holding potential yielding 20 to 50% inactivation. To elicit sodium current, channels were activated by pulsing to −10 mV for 20 msec. […] A single concentration of test compound was applied to cells for a duration of 3 minutes. Peak sodium current was measured at the end of the compound addition period to determine percent inhibition. Three to five cells were tested per concentration, and IC50 curves were fitted to percent inhibition as a function of concentration.

Nav 1.7, sequence (Q15858 whole entry): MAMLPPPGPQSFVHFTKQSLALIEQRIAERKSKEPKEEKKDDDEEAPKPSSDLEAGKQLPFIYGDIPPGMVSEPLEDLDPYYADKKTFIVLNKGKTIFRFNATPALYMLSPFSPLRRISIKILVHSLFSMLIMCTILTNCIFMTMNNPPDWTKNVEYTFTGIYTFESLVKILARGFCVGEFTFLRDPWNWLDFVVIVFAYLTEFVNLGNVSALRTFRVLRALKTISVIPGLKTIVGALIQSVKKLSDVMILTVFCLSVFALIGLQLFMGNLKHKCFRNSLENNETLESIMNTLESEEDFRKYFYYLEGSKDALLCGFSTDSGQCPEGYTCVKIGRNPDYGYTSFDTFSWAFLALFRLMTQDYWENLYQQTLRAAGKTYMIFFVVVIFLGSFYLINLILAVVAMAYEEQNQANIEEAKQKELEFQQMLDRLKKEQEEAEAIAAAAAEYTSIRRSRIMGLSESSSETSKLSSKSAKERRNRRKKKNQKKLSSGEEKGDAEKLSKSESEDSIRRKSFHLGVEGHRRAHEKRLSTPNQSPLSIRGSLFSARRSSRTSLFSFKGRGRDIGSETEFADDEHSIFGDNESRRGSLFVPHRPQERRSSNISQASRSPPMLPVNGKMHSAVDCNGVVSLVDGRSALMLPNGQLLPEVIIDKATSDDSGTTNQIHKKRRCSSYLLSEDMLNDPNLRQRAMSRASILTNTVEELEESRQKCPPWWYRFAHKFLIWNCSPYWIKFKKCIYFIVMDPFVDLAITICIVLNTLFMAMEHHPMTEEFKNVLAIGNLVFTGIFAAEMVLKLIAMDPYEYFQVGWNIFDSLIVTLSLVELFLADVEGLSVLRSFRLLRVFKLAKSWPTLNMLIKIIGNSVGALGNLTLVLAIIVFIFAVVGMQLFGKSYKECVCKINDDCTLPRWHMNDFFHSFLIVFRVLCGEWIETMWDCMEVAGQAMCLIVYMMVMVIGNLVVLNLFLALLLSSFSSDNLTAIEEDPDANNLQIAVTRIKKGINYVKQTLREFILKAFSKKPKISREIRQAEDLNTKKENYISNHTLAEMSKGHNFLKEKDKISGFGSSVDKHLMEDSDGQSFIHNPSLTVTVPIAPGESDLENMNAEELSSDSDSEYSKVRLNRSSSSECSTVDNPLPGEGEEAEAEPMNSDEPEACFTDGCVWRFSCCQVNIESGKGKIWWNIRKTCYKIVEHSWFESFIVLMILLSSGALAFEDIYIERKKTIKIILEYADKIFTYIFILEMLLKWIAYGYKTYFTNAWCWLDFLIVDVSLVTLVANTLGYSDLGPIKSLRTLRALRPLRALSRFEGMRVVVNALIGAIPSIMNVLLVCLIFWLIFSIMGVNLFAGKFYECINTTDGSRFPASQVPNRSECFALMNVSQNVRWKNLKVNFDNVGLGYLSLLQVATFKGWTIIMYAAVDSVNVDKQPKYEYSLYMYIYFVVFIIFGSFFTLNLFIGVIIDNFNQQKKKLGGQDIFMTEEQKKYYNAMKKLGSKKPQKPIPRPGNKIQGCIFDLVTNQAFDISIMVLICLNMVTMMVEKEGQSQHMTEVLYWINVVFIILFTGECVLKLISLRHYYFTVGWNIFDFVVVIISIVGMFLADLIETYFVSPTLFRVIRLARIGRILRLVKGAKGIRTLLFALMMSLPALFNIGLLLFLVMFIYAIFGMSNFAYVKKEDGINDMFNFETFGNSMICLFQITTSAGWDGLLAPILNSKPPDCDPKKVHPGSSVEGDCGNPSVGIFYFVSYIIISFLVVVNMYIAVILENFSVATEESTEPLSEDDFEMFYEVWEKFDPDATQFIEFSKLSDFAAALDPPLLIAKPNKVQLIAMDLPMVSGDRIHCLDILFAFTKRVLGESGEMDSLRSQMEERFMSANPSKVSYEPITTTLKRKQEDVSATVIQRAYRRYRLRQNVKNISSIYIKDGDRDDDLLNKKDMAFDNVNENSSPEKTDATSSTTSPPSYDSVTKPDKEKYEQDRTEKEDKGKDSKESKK

Row | IC50 | Structure (SMILES)
1 | 1.75 µM | COc1cc(C(F)(F)F)ccc1-c1nccc2cc(S(=O)(=O)Nc3cnsn3)ccc12 [Example 388, 1-(2-METHOXY-4-(TRIFLUOROMETHYL)PHENYL)-N-(1,2,5-THIADIAZOL-3-YL)ISOQUINOLINE-6-SULFONAMIDE]
2 | 5.17 µM | COc1ccc(C2=CCOCC2)cc1-c1nccc2cc(S(=O)(=O)Nc3ccncn3)ccc12 [Example 353, 1-(5-(3,6-DIHYDRO-2H-PYRAN-4-YL)-2-METHOXYPHENYL)-N-(PYRIMIDIN-4-YL)ISOQUINOLINE-6-SULFONAMIDE]
3 | 0.367 µM | COc1cc(C(F)(F)F)ccc1-c1nccc2cc(S(=O)(=O)Nc3ncc(Cl)s3)ccc12 [Example 420, N-(5-CHLOROTHIAZOL-2-YL)-1-(2-METHOXY-4-(TRIFLUOROMETHYL)PHENYL)ISOQUINOLINE-6-SULFONAMIDE]
4 | 5.11 µM | COc1ccccc1-c1c(Br)cnc2cc(S(=O)(=O)Nc3nccs3)ccc12 [Example 325, 3-BROMO-4-(2-METHOXYPHENYL)-N-(THIAZOL-2-YL)QUINOLINE-7-SULFONAMIDE]
5 | 0.986 µM | COc1nc(Cl)ccc1-c1nccc2cc(S(=O)(=O)Nc3nccs3)ccc12 [Example 408, 1-(6-CHLORO-2-METHOXYPYRIDIN-3-YL)-N-(THIAZOL-2-YL)ISOQUINOLINE-6-SULFONAMIDE]
6 | 1.42 µM | COc1cc(-c2cccnc2)c(F)cc1-c1nccc2cc(S(=O)(=O)Nc3nncs3)ccc12 [Example 367, 1-(5-FLUORO-2-METHOXY-4-(PYRIDIN-3-YL)PHENYL)-N-(1,3,4-THIADIAZOL-2-YL)ISOQUINOLINE-6-SULFONAMIDE]
7 | 6.71 µM | CC(C)(O)c1ccccc1-c1nccc2cc(S(=O)(=O)Nc3nccs3)ccc12 [Example 384, 1-(2-(2-HYDROXYPROPAN-2-YL)PHENYL)-N-(THIAZOL-2-YL)ISOQUINOLINE-6-SULFONAMIDE]
8 | 1.39 µM | N#Cc1cc(C(F)(F)F)ccc1-c1nccc2cc(S(=O)(=O)Nc3nccs3)ccc12 [Example 386, 1-(2-CYANO-4-(TRIFLUOROMETHYL)PHENYL)-N-(THIAZOL-2-YL)ISOQUINOLINE-6-SULFONAMIDE]
9 | 1.67 µM | COc1ncc(F)cc1-c1nccc2cc(S(=O)(=O)Nc3nccs3)ccc12 [Example 410, 1-(5-FLUORO-2-METHOXYPYRIDIN-3-YL)-N-(THIAZOL-2-YL)ISOQUINOLINE-6-SULFONAMIDE]
10 | 0.51 µM | COc1cc(F)ccc1-c1ncc(O)c2cc(S(=O)(=O)Nc3nccs3)ccc12 [Example 233, 1-(4-FLUORO-2-METHOXYPHENYL)-4-HYDROXY-N-(THIAZOL-2-YL)ISOQUINOLINE-6-SULFONAMIDE 2,2,2-TRIFLUOROACETATE]
11 | 4.42 µM | COc1cc(C(F)(F)F)ccc1-c1nccc2cc(S(=O)(=O)Nc3ccc(F)cn3)ccc12 [Example 427, N-(5-FLUOROPYRIDIN-2-YL)-1-(2-METHOXY-4-(TRIFLUOROMETHYL)PHENYL)ISOQUINOLINE-6-SULFONAMIDE]
12 | 0.682 µM | COc1cc(F)ccc1-c1ncc(C#N)c2cc(S(=O)(=O)Nc3nccs3)ccc12 [Example 399, 4-CYANO-1-(4-FLUORO-2-METHOXYPHENYL)-N-(THIAZOL-2-YL)ISOQUINOLINE-6-SULFONAMIDE]
13 | 2.6 µM | COc1cc(C(F)(F)F)ccc1-c1nc(C)nc2cc(S(=O)(=O)Nc3ccncn3)ccc12 [Example 518, 4-(2-METHOXY-4-(TRIFLUOROMETHYL)PHENYL)-2-METHYL-N-(PYRIMIDIN-4-YL)QUINAZOLINE-7-SULFONAMIDE]
14 | 13.9 µM | O=S(=O)(Nc1nccs1)c1ccc2c(-c3ccc(F)cc3Oc3ccccn3)nccc2c1 [Example 191, 1-(4-FLUORO-2-(PYRIDIN-2-YLOXY)PHENYL)-N-(THIAZOL-2-YL)ISOQUINOLINE-6-SULFONAMIDE]
15 | 1.33 µM | COc1ccccc1-c1ncc(C#N)c2cc(S(=O)(=O)Nc3nccs3)ccc12 [Example 400, 4-CYANO-1-(2-METHOXYPHENYL)-N-(THIAZOL-2-YL)ISOQUINOLINE-6-SULFONAMIDE]
16 | 1.85 µM | Cc1cc(Cl)ccc1-c1nccc2cc(S(=O)(=O)Nc3ccncn3)ccc12 [Example 357]
17 | 4.1 µM | COc1cc(C(F)(F)F)ccc1-c1nccc2cc(S(=O)(=O)Nc3cocn3)ccc12 [Example 440, 1-(2-METHOXY-4-(TRIFLUOROMETHYL)PHENYL)-N-(OXAZOL-4-YL)ISOQUINOLINE-6-SULFONAMIDE]
18 | 4.45 µM | COc1cc(C#N)ccc1-c1ccnc2cc(S(=O)(=O)Nc3ccncn3)ccc12 [Example 280, 4-(4-CYANO-2-METHOXYPHENYL)-N-(PYRIMIDIN-4-YL)QUINOLINE-7-SULFONAMIDE]
19 | 0.58 µM | COc1cc(C(F)(F)F)ccc1-c1ccnc2cc(S(=O)(=O)Nc3ccncn3)ccc12 [Example 279, 4-(2-METHOXY-4-(TRIFLUOROMETHYL)PHENYL)-N-(PYRIMIDIN-4-YL)QUINOLINE-7-SULFONAMIDE]
20 | 2.77 µM | COc1cc(-c2c(C)ccnc2F)ccc1-c1nccc2cc(S(=O)(=O)Nc3ccncn3)ccc12 [Example 480, 1-(4-(2-FLUORO-4-METHYLPYRIDIN-3-YL)-2-METHOXYPHENYL)-N-(PYRIMIDIN-4-YL)ISOQUINOLINE-6-SULFONAMIDE]
21 | 3.52 µM | N#Cc1ccccc1-c1ncc(F)c2cc(S(=O)(=O)Nc3nccs3)ccc12 [Example 397, 1-(2-CYANOPHENYL)-4-FLUORO-N-(THIAZOL-2-YL)ISOQUINOLINE-6-SULFONAMIDE]
22 | 4.15 µM | COc1ccccc1-c1cncc2cc(S(=O)(=O)Nc3ccncn3)ccc12 [Example 287, 4-(2-METHOXYPHENYL)-N-(PYRIMIDIN-4-YL)ISOQUINOLINE-7-SULFONAMIDE HYDROCHLORIDE]
23 | 2.34 µM | COc1cc(C(F)(F)F)ccc1-c1ccnc2cc(S(=O)(=O)Nc3nccs3)c(OC)cc12 [Example 327, 6-METHOXY-4-(2-METHOXY-4-(TRIFLUOROMETHYL)PHENYL)-N-(THIAZOL-2-YL)QUINOLINE-7-SULFONAMIDE]
24 | 3.29 µM | COc1cc(C(F)(F)F)ccc1-c1ccnc2cc(S(=O)(=O)Nc3nccs3)cc(C)c12 [Example 282, 4-(2-METHOXY-4-(TRIFLUOROMETHYL)PHENYL)-5-METHYL-N-(THIAZOL-2-YL)QUINOLINE-7-SULFONAMIDE]
25 | 1.8 µM | COc1ncc(Cl)cc1-c1ncnc2cc(S(=O)(=O)Nc3nccs3)ccc12 [Example 541, 4-(5-CHLORO-2-METHOXYPYRIDIN-3-YL)-N-(THIAZOL-2-YL)QUINAZOLINE-7-SULFONAMIDE]
26 | 0.69 µM | COc1ncc(C(F)(F)F)cc1-c1nccc2cc(S(=O)(=O)Nc3nccs3)ccc12 [Example 409, 1-(2-METHOXY-5-(TRIFLUOROMETHYL)PYRIDIN-3-YL)-N-(THIAZOL-2-YL)ISOQUINOLINE-6-SULFONAMIDE]
27 | 7.11 µM | O=S(=O)(Nc1nccs1)c1ccc2c(-c3ccc(F)cc3OC3CCOCC3)nccc2c1 [Example 414, 1-(4-FLUORO-2-((TETRAHYDRO-2H-PYRAN-4-YL)OXY)PHENYL)-N-(THIAZOL-2-YL)ISOQUINOLINE-6-SULFONAMIDE]
28 | 1.04 µM | COc1ncccc1-c1ncc(F)c2cc(S(=O)(=O)Nc3nccs3)ccc12 [Example 396, 4-FLUORO-1-(2-METHOXYPYRIDIN-3-YL)-N-(THIAZOL-2-YL)ISOQUINOLINE-6-SULFONAMIDE]
29 | 1.27 µM | COc1cc(C(F)(F)F)ccc1-c1cnnc2cc(S(=O)(=O)Nc3ccncn3)ccc12 [Example 260, 4-(2-METHOXY-4-(TRIFLUOROMETHYL)PHENYL)-N-(PYRIMIDIN-4-YL)CINNOLINE-7-SULFONAMIDE]
30 | 1.59 µM | COc1ccc(Cl)cc1-c1n[nH]c(=O)c2cc(S(=O)(=O)Nc3ccncn3)ccc12 [Example 504, 1-(5-CHLORO-2-METHOXYPHENYL)-4-OXO-N-(PYRIMIDIN-4-YL)-3,4-DIHYDROPHTHALAZINE-6-SULFONAMIDE]

Row | Structure (SMILES) | IC50
31 | COc1ncc(C)cc1-c1nccc2cc(S(=O)(=O)Nc3nccs3)ccc12 [Example 411, 1-(2-METHOXY-5-METHYLPYRIDIN-3-YL)-N-(THIAZOL-2-YL)ISOQUINOLINE-6-SULFONAMIDE] | 0.685 µM
32 | NC(=O)COc1cc(F)ccc1-c1nccc2cc(S(=O)(=O)Nc3nccs3)ccc12 [Example 417, 2-(5-FLUORO-2-(6-(N-(THIAZOL-2-YL)SULFAMOYL)ISOQUINOLIN-1-YL)PHENOXY)ACETAMIDE] | 1.23 µM
33 | O=S(=O)(Nc1ncns1)c1ccc2c(N3CCC[C@@H]3c3ccncc3)cccc2c1 (single isomer, unassigned) [Example 90] | 0.0393 µM
34 | COc1cc(Cl)ccc1-c1ncnc2cc(S(=O)(=O)Nc3ccncn3)ccc12 [Example 526, 4-(4-CHLORO-2-METHOXYPHENYL)-N-(PYRIMIDIN-4-YL)QUINAZOLINE-7-SULFONAMIDE] | 2.3 µM
35 | COc1nc(C)ccc1-c1nccc2cc(S(=O)(=O)Nc3nccs3)ccc12 [Example 412, 1-(2-METHOXY-6-METHYLPYRIDIN-3-YL)-N-(THIAZOL-2-YL)ISOQUINOLINE-6-SULFONAMIDE] | 1.03 µM
36 | COc1nc(OCC(C)C)ccc1-c1nccc2cc(S(=O)(=O)Nc3ccncn3)ccc12 [Example 418, 1-(6-ISOBUTOXY-2-METHOXYPYRIDIN-3-YL)-N-(PYRIMIDIN-4-YL)ISOQUINOLINE-6-SULFONAMIDE] | 2.13 µM
37 | O=S(=O)(Nc1nccs1)c1ccc2c(-c3ccc(F)cc3C3=CCOC3)nccc2c1 [Example 127, 1-(2-(2,5-DIHYDROFURAN-3-YL)-4-FLUOROPHENYL)-N-(THIAZOL-2-YL)ISOQUINOLINE-6-SULFONAMIDE TRIFLUOROACETATE] | 2.22 µM
38 | O=S(=O)(Nc1ncns1)c1ccc2c(N3CCC[C@H]3c3cccnc3)cccc2c1 (single isomer, unassigned) [Example 86] | 0.0627 µM
39 | O=S(=O)(Nc1nccs1)c1ccc2c(-c3ccc(C(F)(F)F)cc3O)ncnc2c1 [Example 533, 4-(2-HYDROXY-4-(TRIFLUOROMETHYL)PHENYL)-N-(THIAZOL-2-YL)QUINAZOLINE-7-SULFONAMIDE] | 4.09 µM
